Reference: patent US9249147B2, “Tyrosine kinase inhibitors” (CHEMBRIDGE CORPORATION, priority 2008, dated 2016)

Key:
Type in all cases: biochemical
IGF1R = target: T1, IGF1R (Homo sapiens, UniProt P08069); test: IGF1R kinase assay; settings: Table 1; read-out: IGF1R IC50
T1 construct: 6×His- or GST-tagged kinase domain fragments of the corresponding RTKs expressed in baculovirus system; host or cells: baculovirus system
Experimental: (§1) To determine inhibition of several tyrosine kinases, such as IGF1R, InsR, Alk, TrkA and Jak2, kinase assays are conducted using either Kinase-Glo (Promega) or AlphaScreen (PerkinElmer) kinase assay platforms. The Kinase-Glo Luminescent Kinase Assay is a homogeneous method for measuring kinase activity by determining the amount of ATP remaining after a kinase reaction. The luminescent signal is proportional to the amount of ATP and inversely proportional to the amount of kinase activity. Tyrosine kinase PT66 AlphaScreen Assay is a high-sensitivity homogeneous, anti-phosphotyrosine antibody-mediated luminescent proximity method measuring incorporation of phosphate in synthetic poly(Glu-Tyr) substrate. The kinase preparations used consist of purified recombinant, 6×His- or GST-tagged kinase domain fragments of the corresponding RTKs expressed in baculovirus system.
(§2) Compounds with a range of concentrations 40 μM, 20 μM, 10 μM, 5 μM, 2.5 μM, 1.25 μM, 0.625 μM, 0.3125 μM, 0.15625 μM and 0.078125 μM were incubated with NPM-ALK, which was produced in insect cells as a 6×HIS-tagged fusion protein and purified using nickel-charged resin chromatography, for 30 minutes at RT in the presence of 10 μM ATP and 7.0 ng biotinylated poly-GT. A 1:1 mixture of […] and donor beads was then added to the reaction and incubated for an additional 60 minutes at RT. The assay was conducted on a MultiPROBE liquid handling workstation (PerkinElmer) in a 384-well plate format with a total reaction volume of 40 μL per well. Working stocks of all compounds were dissolved in 100% DMSO and serial dilutions of the compounds were performed using kinase buffer (50 mM Tris-HCl (pH 7.5), 5 mM MgCl2, 5 mM MnCl2, 2 mM DTT (added freshly before use), 0.01% Tween-20) containing 5% DMSO. […] Data were collected as optical readings at 520-680 nm on a Fusion™ microplate analyzer (PerkinElmer), and IC50 and Ki values calculated using PRISM3.0 software (GraphPad Software, Inc., San Diego, Calif.). The same assay was also used with minor modifications to assess the IC50 and Ki values for selected compounds against five other tyrosine kinases (IRK, IGF1R, Flt3, Abl, Src), all of which were purchased from commercial vendors. PolyGT-Biotin was bought from CIS Biointernational Cat. #61GT0BLD; ATP—from Sigma Cat. # A7699; sodium orthovanadate—from Sigma Cat. #S-6508; phosphotyrosine (PT66) assay kit from PerkinElmer Cat. #6760602M; automated workstation tips (20 μL): PerkinElmer Cat. #6000657; and OptiPlate-384 (white)—from PerkinElmer Cat. #6007299.

ALK = ALK (Homo sapiens, UniProt Q9UM73); test: ALK kinase assay (Kinase-Glo / AlphaScreen, purified NPM-ALK); design: fused to the complete intracytoplasmic portion of ALK containing the functional tyrosine kinase domain; 6xHis; made in house; host or cells: insect cells; the other entry of the earlier key: NPM1 (P06748, Nucleophosmin); settings: Table 1; read-out: ALK IC50
IRK = target: T2, IRK (Homo sapiens, UniProt P06213); test: IRK (insulin receptor kinase) assay; settings: Table 1; read-out: IRK IC50
T2 construct: 6×His- or GST-tagged kinase domain fragments of the corresponding RTKs expressed in baculovirus system; host or cells: baculovirus system
Experimental: as §1, §2

ALK, sequence (Q9UM73 with tags, fused parts or gaps): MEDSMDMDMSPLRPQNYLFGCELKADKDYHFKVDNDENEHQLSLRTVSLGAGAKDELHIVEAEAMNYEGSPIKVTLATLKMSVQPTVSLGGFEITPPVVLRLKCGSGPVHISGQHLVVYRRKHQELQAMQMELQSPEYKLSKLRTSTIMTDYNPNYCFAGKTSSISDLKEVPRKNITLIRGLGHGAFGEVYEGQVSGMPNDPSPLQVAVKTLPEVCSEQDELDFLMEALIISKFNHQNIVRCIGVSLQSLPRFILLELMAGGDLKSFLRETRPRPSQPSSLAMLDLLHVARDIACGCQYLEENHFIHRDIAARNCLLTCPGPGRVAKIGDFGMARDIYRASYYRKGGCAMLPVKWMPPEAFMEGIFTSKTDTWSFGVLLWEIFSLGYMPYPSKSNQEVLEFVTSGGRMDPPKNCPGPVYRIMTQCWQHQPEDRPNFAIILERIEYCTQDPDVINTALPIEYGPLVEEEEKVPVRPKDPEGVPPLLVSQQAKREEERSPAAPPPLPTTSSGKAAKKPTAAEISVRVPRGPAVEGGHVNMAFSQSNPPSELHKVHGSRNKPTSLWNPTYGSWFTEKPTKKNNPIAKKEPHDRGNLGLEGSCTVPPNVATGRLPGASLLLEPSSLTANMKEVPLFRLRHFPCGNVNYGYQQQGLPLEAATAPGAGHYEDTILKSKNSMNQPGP
T2 sequence (P06213 1023-1298 limits assumed): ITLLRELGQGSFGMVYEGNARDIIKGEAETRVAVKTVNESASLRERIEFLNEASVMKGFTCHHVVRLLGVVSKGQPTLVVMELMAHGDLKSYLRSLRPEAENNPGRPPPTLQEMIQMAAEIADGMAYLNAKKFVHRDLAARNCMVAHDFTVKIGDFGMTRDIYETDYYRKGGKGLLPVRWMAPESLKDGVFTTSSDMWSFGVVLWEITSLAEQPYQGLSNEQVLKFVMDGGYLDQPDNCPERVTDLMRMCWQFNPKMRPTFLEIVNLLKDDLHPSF
T1 sequence (P08069 999-1274 limits assumed): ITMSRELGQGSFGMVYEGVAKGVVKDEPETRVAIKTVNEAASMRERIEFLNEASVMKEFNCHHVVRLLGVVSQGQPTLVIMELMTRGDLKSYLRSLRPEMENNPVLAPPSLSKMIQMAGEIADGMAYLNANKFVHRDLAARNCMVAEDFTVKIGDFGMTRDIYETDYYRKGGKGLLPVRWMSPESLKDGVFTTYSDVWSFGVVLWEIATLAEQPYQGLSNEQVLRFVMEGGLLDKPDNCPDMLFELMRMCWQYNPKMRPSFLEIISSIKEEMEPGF

| SMILES | IC50 (IGF1R) [µM] | IC50 (ALK) [µM] | IC50 (IRK) [µM] |
| --- | --- | --- | --- |
| CC(Cc1cccs1)Nc1cc[nH]c(=O)c1-c1nc2cc3c(cc2[nH]1)C(=O)N(C1CCN(C)CC1)C3=O (stereo not drawn) | > 1 | 0.25 to 1 | > 1 |
| CC(Cc1cccs1)Nc1cc[nH]c(=O)c1-c1nc2cc3c(cc2[nH]1)C(=O)N(CCCN1CCCC1)C3=O (stereo not drawn) | > 1 | 0.1 to 0.25 | > 1 |
| C[C@H](Cc1cccs1)Nc1cc[nH]c(=O)c1-c1nc2cc3c(cc2[nH]1)C(=O)N(CCCN1CCCC1)C3=O | > 1 | > 1 | > 1 |
| C[C@H](Cc1cccs1)Nc1cc[nH]c(=O)c1-c1nc2cc3c(cc2[nH]1)C(=O)N(CCCN1CCCC1)C3 | > 1 | > 1 | 0.25 to 1 |
| C[C@H](Cc1cccs1)Nc1cc[nH]c(=O)c1-c1nc2c(Cl)c3c(cc2[nH]1)C(=O)N(C1CCN(C)CC1)C3=O | > 1 | > 1 | > 1 |
| CC(Cc1ccccc1F)Nc1cc[nH]c(=O)c1-c1nc2cc3c(cc2[nH]1)C(=O)N(CCCN1CCCC1)C3 (stereo not drawn) | 0.1 to 0.25 | 0.1 to 0.25 | > 1 |
| CC(Cc1cccs1)N(C)c1cc[nH]c(=O)c1-c1nc2cc3c(cc2[nH]1)C(=O)N(CCCN1CCCC1)C3 (stereo not drawn) | > 1 | > 1 | > 1 |
| C[C@@H](Cc1cccs1)Nc1cc[nH]c(=O)c1-c1nc2cc3c(cc2[nH]1)C(=O)N(CCCN(C)C)C3 | 0.25 to 1 | 0.1 to 0.25 | 0.1 to 0.25 |
| C[C@@H](Cc1cccs1)Nc1cc[nH]c(=O)c1-c1nc2cc3c(cc2[nH]1)C(=O)N(CCN1CCCC1)C3 | 0.25 to 1 | 0.25 to 1 | 0.1 to 0.25 |
| C[C@H](Nc1cc[nH]c(=O)c1-c1nc2cc3c(cc2[nH]1)C(=O)N(CCCN1CCCC1)C3)[C@H](O)c1ccccc1 | 0.25 to 1 | 0.1 to 0.25 | 0.25 to 1 |
| C[C@@H](Cc1cccs1)Nc1cc[nH]c(=O)c1-c1nc2cc3c(cc2[nH]1)C(=O)N(C1CCN(CCS(C)(=O)=O)CC1)C3 | 0.1 to 0.25 | 0.1 to 0.25 | 0.25 to 1 |
| CCS(=O)(=O)CCN1CCC(N2Cc3cc4nc(-c5c(N[C@@H](C)Cc6cccs6)cc[nH]c5=O)[nH]c4cc3C2=O)CC1 | 0.25 to 1 | 0.1 to 0.25 | 0.1 to 0.25 |
| C[C@@H](Cc1cccs1)Nc1cc[nH]c(=O)c1-c1nc2cc3c(cc2[nH]1)C(=O)N(CCCN1CCCC1)C3=O | > 1 | 0.1 to 0.25 |  |
| C[C@@H](Cc1cccs1)Nc1cc[nH]c(=O)c1-c1nc2cc3c(cc2[nH]1)C(=O)N(CCCCN1CCCC1)C3 | > 1 | 0.1 to 0.25 |  |
| Cc1ccsc1C[C@H](C)Nc1cc[nH]c(=O)c1-c1nc2cc3c(cc2[nH]1)CN(CCN1CCCC1)C3=O | 0.25 to 1 | 0.01 to 0.1 | 0.01 to 0.1 |
| C[C@@H](Cc1sccc1C(F)(F)F)Nc1cc[nH]c(=O)c1-c1nc2cc3c(cc2[nH]1)CN(CCN1CCCC1)C3=O | 0.25 to 1 | 0.01 to 0.1 |  |
| C[C@@H](Cc1sccc1Cl)Nc1cc[nH]c(=O)c1-c1nc2cc3c(cc2[nH]1)CN(CCN1CCCC1)C3=O | 0.1 to 0.25 | 0.01 to 0.1 | 0.1 to 0.25 |
| Cc1ccsc1C[C@H](C)Nc1cc[nH]c(=O)c1-c1nc2cc3c(cc2[nH]1)CN(CCN1CCC[C@@H]1C)C3=O | 0.25 to 1 | 0.1 to 0.25 |  |
| Cc1ccsc1C[C@H](C)Nc1cc[nH]c(=O)c1-c1nc2cc3c(cc2[nH]1)C(=O)N(CC(C)CN1CCCC1)C3 (stereo partly drawn) | 0.25 to 1 | 0.01 to 0.1 |  |
| Cc1cc(F)ccc1C[C@H](C)Nc1cc[nH]c(=O)c1-c1nc2cc3c(cc2[nH]1)C(=O)N(CCN1CCCC1)C3 | > 1 | 0.01 to 0.1 | 0.25 to 1 |

| SMILES | IC50 (IGF1R) [µM] | IC50 (ALK) [µM] | IC50 (IRK) [µM] |
| --- | --- | --- | --- |
| Cc1ccc(F)cc1C[C@H](C)Nc1cc[nH]c(=O)c1-c1nc2cc3c(cc2[nH]1)C(=O)N(CCN(C)C)C3=O | 0.1 to 0.25 | 0.1 to 0.25 | > 1 |
| Cc1ccc(F)cc1C[C@H](C)Nc1cc[nH]c(=O)c1-c1nc2cc3c(cc2[nH]1)CNC3=O | 0.25 to 1 | 0.01 to 0.1 | > 1 |
| COc1ccc(F)cc1C[C@H](C)Nc1cc[nH]c(=O)c1-c1nc2cc3c(cc2[nH]1)CN(CCN1CCCC1)C3=O | 0.1 to 0.25 | 0.01 to 0.1 | 0.25 to 1 |
| COc1ccc(F)cc1C[C@H](C)Nc1cc[nH]c(=O)c1-c1nc2cc3c(cc2[nH]1)CN(CCN(C)C)C3=O | 0.1 to 0.25 | 0.01 to 0.1 | 0.25 to 1 |
| Cc1ccc(F)cc1C[C@H](C)Nc1cc[nH]c(=O)c1-c1nc2cc3c(cc2[nH]1)CN(CCN1CCOCC1)C3=O | 0.1 to 0.25 | 0.1 to 0.25 | > 1 |
| COc1ccc(F)cc1C[C@H](C)Nc1cc[nH]c(=O)c1-c1nc2cc3c(cc2[nH]1)CN(CCN1CCOCC1)C3=O | 0.1 to 0.25 | 0.1 to 0.25 | > 1 |
| C[C@@H](Cc1cc(F)ccc1Cl)Nc1cc[nH]c(=O)c1-c1nc2cc3c(cc2[nH]1)CN(CCN1CCCC1)C3=O | 0.25 to 1 | 0.1 to 0.25 | 0.25 to 1 |
| Cc1ccc(C(F)(F)F)cc1C[C@H](C)Nc1cc[nH]c(=O)c1-c1nc2cc3c(cc2[nH]1)CN(CCN(C)C)C3=O | 0.1 to 0.25 | 0.25 to 1 | 0.25 to 1 |
| Cc1ccc(N(C)C)cc1C[C@H](C)Nc1cc[nH]c(=O)c1-c1nc2cc3c(cc2[nH]1)CN(CCN1CCCC1)C3=O | > 1 | > 1 | > 1 |
| Cc1ccc(C(F)(F)F)cc1C[C@H](C)Nc1cc[nH]c(=O)c1-c1nc2cc3c(cc2[nH]1)CN(CCN1CCCC1)C3=O | > 1 | > 1 | 0.25 to 1 |
| C[C@@H](Cc1cc(F)cc(F)c1F)Nc1cc[nH]c(=O)c1-c1nc2cc3c(cc2[nH]1)CN(CCN1CCOCC1)C3=O | 0.25 to 1 | 0.01 to 0.1 | > 1 |
| Cc1ccc(C(F)(F)F)cc1C[C@H](C)Nc1cc[nH]c(=O)c1-c1nc2cc3c(cc2[nH]1)CN(CCN1CCOCC1)C3=O | > 1 | 0.25 to 1 | > 1 |
| C[C@@H](Cc1ccccc1Cl)Nc1cc[nH]c(=O)c1-c1nc2cc3c(cc2[nH]1)CN(CCN1CCCC1)C3=O | > 1 | 0.25 to 1 | 0.1 to 0.25 |
| Cc1ccc(Cl)cc1C[C@H](C)Nc1cc[nH]c(=O)c1-c1nc2cc3c(cc2[nH]1)CN(CCN1CCCC1)C3=O | > 1 | 0.25 to 1 | 0.1 to 0.25 |
| COc1ccc(C)c(C[C@H](C)Nc2cc[nH]c(=O)c2-c2nc3cc4c(cc3[nH]2)CN(CCN2CCCC2)C4=O)c1 | > 1 | 0.01 to 0.1 | 0.25 to 1 |
| COc1ccc(OC)c(C[C@H](C)Nc2cc[nH]c(=O)c2-c2nc3cc4c(cc3[nH]2)CN(CCN2CCCC2)C4=O)c1 | > 1 | 0.1 to 0.25 | 0.25 to 1 |
| COc1cc(F)c(F)c(C[C@H](C)Nc2cc[nH]c(=O)c2-c2nc3cc4c(cc3[nH]2)CN(CCN2CCCC2)C4=O)c1OC | > 1 | 0.01 to 0.1 | 0.25 to 1 |
| CCc1ccccc1C[C@H](C)Nc1cc[nH]c(=O)c1-c1nc2cc3c(cc2[nH]1)CN(CCN1CCCC1)C3=O | > 1 | 0.01 to 0.1 | 0.25 to 1 |
| CN1CCC(N2C(=O)c3cc4nc(-c5c(N[C@@H](CO)Cc6ccccc6)cc[nH]c5=O)[nH]c4cc3C2=O)CC1 | > 1 | 0.1 to 0.25 | > 1 |
| CNCCN1Cc2cc3[nH]c(-c4c(N[C@@H](C)Cc5cc(F)ccc5C)cc[nH]c4=O)nc3cc2C1=O [drawing 348] | 0.01 to 0.1 | 0.25 to 1 |  |
